# Data reported in patent US12214036B2, “Combination therapy comprising AXL/MER and PD-1/PD-L1 inhibitors” (Incyte Corporation, priority 2020, dated 2025).
# Key:
# [1] = system: CTG-2041 tumors; assay: Sarcoma PDX model CTG-2041 (angiosarcoma); assay type: in vivo, athymic nude mice
# Experimental: Macrophages were allowed to thaw on ice before being lysed with 250 μL/well of 1× Lysis Buffer (Cell Signaling Technology; #9803) and Halt protease and phosphatase inhibitors (ThermoFisher Scientific) for 1 hour at 4° C. The lysed cells were scraped and transferred to an Eppendorf vial on ice. The lysates were centrifuged at 12,700 rpm for 15 minutes at 4° C. PDX tumors were weighed and homogenized with lysis buffer supplemented with protease and phosphatase inhibitor cocktails (Roche, Basel, Switzerland; #11836170001). Tumors were lysed on ice for 30 minutes, followed by centrifugation at 13,000 rpm for 10 minutes. Protein lysates were quantified using BCA Protein Assay Kit (Pierce, ThermoFisher Scientific; #23225). Lysates were transferred to a new tube together with 6× Laemmli SDS sample buffer (Alfa Aesar, Haverhill, Mass.) and the samples were heated for 6 minutes at 95° C. Approximately 50 μg of protein sample was loaded per well using Novex™ 8-16% Tris-Glycine Mini Gels or 4-12% Tris-Glycine Novex WedgeGels (Invitrogen, Carlsbad, Calif.). The proteins were transferred to a nitrocellulose membrane using an iBlot (ThermoFisher Scientific) dry blotting system. The membranes were blocked with 0.5% nonfat dry milk in wash buffer (100 mM NaCl, 10 mM Tris-HCl, pH 8.0, 0.1% Tween 20) for 1 hour at room temperature. The primary antibody used for pMER was from PhosphoSolutions (Aurora, Colo.; #p186-749). The remaining antibodies were obtained from Cell Signaling Technology: MER (#4319), pAXL (#5724), AXL, (#4566), GAS6 (#67202), pAKT (#4060), AKT (#9272), and β-Actin (#4970). Primary antibodies were added at 1:500 and 1:1000, respectively, in 0.5% milk/wash buffer and rocked overnight at 4° C. The membranes were washed three times in wash buffer before incubation with the secondary antibody (anti-rabbit IgG1-HRP; Cell Signaling Technology) at 1:2500 in 0.5% milk/wash buffer for 2 hours at room temperature. The membranes were washed again before the bands were detected with SuperSignal West Dura Extended Duration Chemiluminescent substrate (ThermoFisher Scientific) and were visualized using the Fluorochem M Digital Imager (Protein Simple, San Jose, Calif.).
# MBT-2 cells were obtained from the Japanese Collection of Research Bioresources Cell Bank and were maintained in DMEM supplemented with 10% FBS. MC38 cells were obtained from the NCI. 4T1 cells were obtained from ATCC and maintained in RPMI media supplemented with 10% FBS. For MBT-2 experiments, 5×10^5 MBT-2 cells were inoculated subcutaneously into the right hind flank of 6- to 8-week-old C3H mice or athymic nude mice (Charles River Laboratories, Wilmington, Mass.). For MC38 studies, 12-week old female C57BL/6 mice were inoculated with brei of MC38 tumors (in-vivo passage 6) into the right hind flank. For 4T1 studies, 7.5×10^5 4 T1 cells were inoculated subcutaneously into the right hind flank of 6- to 8-week-old female BALB/c mice or athymic nude mice (Charles River Laboratories). Mice were randomized by tumor volume with n=10-12 per group. Compound 1 was dosed orally twice a day (BID) continuously from the start to the end of study. In the MC38 study, anti-programmed death ligand 1 (PD-L1) (BE0101, Bio X Cell, West Lebanon, NH) was dosed intraperitoneally at 15 mg/kg twice a week. […] Mice were monitored for tumor growth and overt tolerability over the course of the experiment. […]
# [2] = system: BAF3 cells expressing AXL; assay: BAF3-AXL cell proliferation assay (CellTiter-Glo); assay type: cell-based; conditions: Mus musculus, 48 hours, 2% FBS
# From the text: To evaluate the cellular potency and selectivity within the TAM receptor family, mouse BAF3 cell lines with stable expression of AXL, MER, or TYRO3 were generated.
# The cytoplasmic domain of AXL, MER, or TYRO3 fused with dimerization sequence and HA tag was cloned into a pMSCV (murine stem cell virus) vector with a puromycin-resistance marker to generate three constructs individually by electroporation into BAF3 cells. Single clones that were IL-3-independent and puromycin-resistant were selected and characterized. To evaluate effects on BAF3 cell proliferation, 1000 cells/well of BAF3, BAF3-AXL, BAF3 MER, or BAF3-TYRO3 cells were treated in the presence or absence of Compound 1 at various concentrations (10 concentration points with a three-fold dilution factor from the highest concentration of 10 μM) diluted in RPMI-1640 with 2% FBS for 48 hours in a 384-well plate. Cell viability was measured by ATP assay (CellTiter-Glo Assay, Promega, Madison, Wis.) according to the manufacturer's procedure. The data were converted to percent inhibition relative to DMSO control, and IC50 curves were fitted using GraphPad Prism software.
structure (smiles),measurement,setting,value
"CC(C)C(=O)N1CCC(c2cc(-c3ccc(NC(=O)c4cn(C(C)C)c(=O)n(-c5ccccn5)c4=O)cc3)c3c(N)ncnn23)CC1 [Compound 1, N-(4-(4-Amino-7-(1-isobutyrylpiperidin-4-yl)pyrrolo[1,2-f][1,2,4]triazin-5-yl)phenyl)-1-isopropyl-2,4-dioxo-3-(pyridin-2-yl)-1,2,3,4-tetrahydropyrimidine-5-carboxamide]",TGI,"[1]; CTG-2041, equivalent activity at 10, 30 and 100 mg/kg BID oral, FIG. 9A",95%
same,GAS6 levels in tumors (Western blot),"[1]; CTG-2041 tumors, FIG. 9D",increased
same,pAKT in tumors (Western blot),"[1]; CTG-2041 tumors, FIG. 9D",inhibited
same,pAXL and pMER in tumors (Western blot),"[1]; CTG-2041 tumors, FIG. 9D",inhibited
same,total MER levels in tumors (Western blot),"[1]; CTG-2041 tumors, FIG. 9D",increased
same,GI50,[2],16 ± 11 nM
